Results from US4259345A, “2-(Imidazol-1-ylmethyl)pyrroles” (Pfizer Inc., priority 1979, dated 1981).
pIC50: −log10 of the molar value.

Legend:
[1] = target: T1, Thromboxane A2 (TxA2) Synthetase (Homo sapiens, UniProt P24557); assay: Thromboxane A2 (TxA2) synthetase inhibition in vitro (isometric tension of rabbit aorta spirals); format: biochemical; settings: Indomethacin pretreated human platelet microsomes; PGH2 substrate, 2 min, 0° C; 5 min pre-incubation; read-out: Molar concentration causing 50% inhibition of TxA2 Synthetase
T1 construct: Indomethacin pretreated human platelet microsomes; from tissue; host or cells: human platelets (microsomes)
T1 sequence (P24557 1-533): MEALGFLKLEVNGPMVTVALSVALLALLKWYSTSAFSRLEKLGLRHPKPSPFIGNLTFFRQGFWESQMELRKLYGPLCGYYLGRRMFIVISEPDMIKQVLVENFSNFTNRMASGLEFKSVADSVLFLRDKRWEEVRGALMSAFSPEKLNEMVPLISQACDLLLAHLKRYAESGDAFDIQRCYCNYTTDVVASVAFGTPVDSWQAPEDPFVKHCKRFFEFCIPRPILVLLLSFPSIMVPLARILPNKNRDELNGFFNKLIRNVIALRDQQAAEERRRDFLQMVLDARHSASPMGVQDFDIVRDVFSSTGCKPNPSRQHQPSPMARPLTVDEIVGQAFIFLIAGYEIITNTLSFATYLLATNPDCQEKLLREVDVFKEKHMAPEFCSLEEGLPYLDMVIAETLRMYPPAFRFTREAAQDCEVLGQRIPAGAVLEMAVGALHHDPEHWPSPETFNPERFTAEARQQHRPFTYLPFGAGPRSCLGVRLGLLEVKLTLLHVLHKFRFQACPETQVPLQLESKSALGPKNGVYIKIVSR
Procedure: (§1) The effect of the compounds of the formula (I) on the thromboxane synthetase enzyme, and the prostacyclin synthetase and cyclo-oxygenase enzyme has been measured by the following in vitro enzyme assays:
3. Thromboxane A2 (TxA2) Synthetase
Indomethacin pretreated human platelet microsomes (Science 1976, 193, 163) are incubated (2 min.: 0° C.) with PGH2 (produced as in 1) and aliquots of the reaction mixture superfused over two rabbit aorta spirals which are separated by a delay coil (2 min.). The latter is required to allow the selective decay of the more unstable thromboxane A2 (Proc. Nat. Acad. Sci., 1975, 72, 2994) thereby enabling the separate measurement of increased isometric tension due to the TxA2 formed and the PGH2 remaining. The test compound is pre-incubated with the enzyme for 5 minutes, and its ability to inhibit the thromboxane synthetase enzyme is measured as its reduction of the TxA2 component of the isometric tension.
(§2) The results of these tests are shown in the following Table, which gives the molar concentration of each compound which caused a 50% change in the effect of the relevant enzyme on isometric tension, i.e. caused a 50% inhibition of the action of that enzyme.

[2] = target: T2, Prostacyclin (PGI2) Synthetase (Sus scrofa, UniProt A0A5G2QT35); assay: Prostacyclin (PGI2) synthetase inhibition in vitro (isometric tension of rabbit aorta strip); format: biochemical; settings: pig aorta microsomes; PGH2 substrate, 30 sec, 22° C; 5 min pre-incubation; read-out: Molar concentration causing 50% inhibition of PGI2 Synthetase
T2 construct: Pig aorta microsomes; from tissue; host or cells: pig aorta (microsomes)
T2 sequence (A0A5G2QT35 1-497): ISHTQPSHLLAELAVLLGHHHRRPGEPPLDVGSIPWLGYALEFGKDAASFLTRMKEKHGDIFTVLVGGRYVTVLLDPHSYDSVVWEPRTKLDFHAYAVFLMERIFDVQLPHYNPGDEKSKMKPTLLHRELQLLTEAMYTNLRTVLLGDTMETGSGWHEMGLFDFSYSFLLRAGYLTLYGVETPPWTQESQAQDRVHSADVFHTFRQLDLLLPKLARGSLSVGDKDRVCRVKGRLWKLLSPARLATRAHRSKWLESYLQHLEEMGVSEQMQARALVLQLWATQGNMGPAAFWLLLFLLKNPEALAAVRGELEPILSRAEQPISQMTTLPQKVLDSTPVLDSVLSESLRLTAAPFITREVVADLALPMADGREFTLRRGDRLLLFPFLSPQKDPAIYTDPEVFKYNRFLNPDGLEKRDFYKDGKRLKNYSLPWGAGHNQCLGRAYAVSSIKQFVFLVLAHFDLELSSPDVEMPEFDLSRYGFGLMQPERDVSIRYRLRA
Procedure: as §1
2. Prostacyclin (PGI2) Synthetase
Pig aorta microsomes (Nature, 1976, 263, 663) are incubated (30 sec.; 22° C.) with PGH2 produced as in 1) and aliquots bio-assayed as in 1. […] The test compound is then pre-incubated with the enzyme for 5 minutes, and its ability to prevent the decrease in tension is measured.
as §2

Cyclo-oxygenase = target: T3, Cyclo-oxygenase (Ovis aries, UniProt P05979); assay: Cyclo-oxygenase inhibition in vitro (isometric tension of rabbit aorta strip); format: biochemical; settings: ram seminal vesicle microsomes; arachidonic acid 100 μM, 1 min, 22°; 5 min pre-incubation; read-out: Molar concentration causing 50% inhibition of Cyclo-oxygenase
T3 construct: Ram seminal vesicle microsomes; from tissue; host or cells: ram seminal vesicle (microsomes)
T3 sequence (P05979 25-600): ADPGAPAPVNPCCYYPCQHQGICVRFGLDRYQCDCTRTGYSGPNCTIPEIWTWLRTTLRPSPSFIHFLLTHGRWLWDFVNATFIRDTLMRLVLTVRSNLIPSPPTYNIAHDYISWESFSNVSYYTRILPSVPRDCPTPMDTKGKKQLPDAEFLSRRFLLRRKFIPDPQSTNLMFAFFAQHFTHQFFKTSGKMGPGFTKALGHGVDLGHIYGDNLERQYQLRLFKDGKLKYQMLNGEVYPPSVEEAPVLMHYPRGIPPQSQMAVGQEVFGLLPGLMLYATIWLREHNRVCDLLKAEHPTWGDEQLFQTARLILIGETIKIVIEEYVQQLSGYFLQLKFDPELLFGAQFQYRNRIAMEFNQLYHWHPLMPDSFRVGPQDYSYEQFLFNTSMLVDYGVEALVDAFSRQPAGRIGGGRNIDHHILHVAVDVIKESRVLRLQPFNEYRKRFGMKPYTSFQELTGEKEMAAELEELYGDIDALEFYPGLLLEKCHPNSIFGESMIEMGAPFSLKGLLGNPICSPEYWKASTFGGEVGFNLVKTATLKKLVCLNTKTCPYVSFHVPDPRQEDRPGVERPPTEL
Procedure: as §1
Ram seminal vesicle microsomes (Biochemistry, 1971, 10, 2372) are incubated with arachidonic acid (100 μM: 1 min.: 22°) to produce PGH2 and aliquots of the reaction mixture injected into a stream of Krebs-bicarbonate at 37° C. (containing a mixture of antagonists (Nature, 1978, 218, 1135) and indomethacin (Brit. J. Pharmacol., 1972, 45, 451)) which is superfusing a spirally-cut rabbit aorta strip (Nature, 1969, 223, 29). The ability of a compound to inhibit the enzyme is measured by comparing the increases in isometric tension produced by PGH2 in the absence of the test compound, and following pre-incubation of the enzyme with the test compound for 5 minutes.
as §2

[3] = target: T2, Prostacyclin (PGI2) Synthetase; settings: pre-incubation with pig aorta microsome enzyme; literature; cited from earlier work
[4] = tested on: lethal effect of arachidonic acid injection; settings: intravenous arachidonic acid; literature; cited from earlier work
[5] = tested on: human blood platelet aggregation; settings: human blood platelets, variety of aggregating agents; literature; cited from earlier work
cyclo-oxygenase enzyme = settings: background statement; cited from earlier work
[6] = tested on: aggregation of platelets in the rat aorta; settings: rats in vivo; literature; cited from earlier work

SMILES | pIC50 [1] | pIC50 [2] | further results
CCOC(=O)c1ccc(Cn2cccc2Cn2ccnc2)cc1 | 8.62 | 4.66 | 
CCCCCC(/C=C/C=C\C/C=C\C/C=C\CCCC(=O)O)OO (centres unmarked) [15-hydroperoxy-arachidonic acid] |  |  | prevention of the PGI2-induced decrease in tension (PGI2 synthetase inhibition) [3]: prevented completely
O=C(O)CCn1cccc1Cn1ccnc1 [CH2 CH2 CO2 H, 1-(2-Carboxyethyl)-2-(imidazol-1-ylmethyl)pyrrole] | 6.74 |  | 
CC(=O)Oc1ccccc1C(=O)O [aspirin] |  |  | protection from the lethal effect of arachidonic acid injection [4]: protect the rabbit from the lethal effect of the injection; inhibitory activity in vitro against aggregating agents [5]: show inhibitory activity in vitro; inhibition of the cyclo-oxygenase enzyme (cyclo-oxygenase enzyme): inhibit the cyclo-oxygenase enzyme
O=C1C(CC[S+]([O-])c2ccccc2)C(=O)N(c2ccccc2)N1c1ccccc1 (centres unmarked) [sulphinpyrazone] |  |  | protection from the lethal effect of arachidonic acid injection [4]: protect the rabbit from the lethal effect of the injection; inhibitory activity in vitro against aggregating agents [5]: show inhibitory activity in vitro; prevention of platelet aggregation in extra corporeal loop of the abdominal aorta [6]: prevent the aggregation of platelets

Continued, in another order:

pIC50 [1] | pIC50 [2] | SMILES | further results
6.21 |  | c1cc(Cn2ccnc2)n(C2CCCCC2)c1 | 
8.72 | 5.19 | c1ccc(-n2cccc2Cn2ccnc2)cc1 | 
5.77 |  | c1ccc(Cn2cccc2Cn2ccnc2)cc1 | 
8.47 | 4.00 | O=C(O)c1ccc(Cn2cccc2Cn2ccnc2)cc1 | pIC50 (Cyclo-oxygenase): < 4.00
8.31 | 4.46 | O=C(c1ccccc1)n1cccc1Cn1ccnc1 | 
6.82 |  | C=CCn1cccc1Cn1ccnc1 [CH2 CHCH2] | 
